Active and inactive are the calls of the source. No cut-off for these calls is given here.
Tests used:
Mu-type opioid receptor [1] = target: T1, Mu-type opioid receptor (Rattus norvegicus, UniProt P33535); experiment: Displacement of [3H]diprenorphine from rat MOR expressed in rat C6 cells after 1 hr by liquid scintillation counting method; assay type: cell-based
[2] = target: Mu-type opioid receptor (Rattus norvegicus) (UniProt P33535); experiment: Agonist activity at rat MOR expressed in rat C6 cells at 10 uM after 1 hr by [35S]GTPgammaS binding assay relative to DAMGO; assay type: functional, cell-based
[3] = target: T2, Kappa-type opioid receptor (Homo sapiens, UniProt P41145); experiment: Displacement of [3H]diprenorphine from human KOR expressed in CHO cells after 1 hr by liquid scintillation counting method; assay type: cell-based
[4] = target: T2, Kappa-type opioid receptor; experiment: Agonist activity at human KOR expressed in CHO cells at 10 uM after 1 hr by [35S]GTPgammaS binding assay relative to U69,593; assay type: functional, cell-based
[5] = target: T3, Delta-type opioid receptor (Rattus norvegicus, UniProt P33533); experiment: Agonist activity at rat DOR expressed in rat C6 cells after 1 hr by [35S]GTPgammaS binding assay; assay type: functional, cell-based
[6] = target: T2, Kappa-type opioid receptor; experiment: Agonist activity at human KOR expressed in CHO cells after 1 hr by [35S]GTPgammaS binding assay; assay type: functional, cell-based
[7] = target: T3, Delta-type opioid receptor; experiment: Displacement of [3H]diprenorphine from rat DOR expressed in rat C6 cells after 1 hr by liquid scintillation counting method; assay type: cell-based
Mu-type opioid receptor [8] = target: T1, Mu-type opioid receptor; experiment: Agonist activity at rat MOR expressed in rat C6 cells after 1 hr by [35S]GTPgammaS binding assay; assay type: functional, cell-based
[9] = target: Delta-type opioid receptor (Rattus norvegicus) (UniProt P33533); experiment: Agonist activity at rat DOR expressed in rat C6 cells at 10 uM after 1 hr by [35S]GTPgammaS binding assay relative to DPDPE; assay type: functional, cell-based
Chain of Delta-type opioid receptor (Rattus norvegicus) (P33533 whole entry): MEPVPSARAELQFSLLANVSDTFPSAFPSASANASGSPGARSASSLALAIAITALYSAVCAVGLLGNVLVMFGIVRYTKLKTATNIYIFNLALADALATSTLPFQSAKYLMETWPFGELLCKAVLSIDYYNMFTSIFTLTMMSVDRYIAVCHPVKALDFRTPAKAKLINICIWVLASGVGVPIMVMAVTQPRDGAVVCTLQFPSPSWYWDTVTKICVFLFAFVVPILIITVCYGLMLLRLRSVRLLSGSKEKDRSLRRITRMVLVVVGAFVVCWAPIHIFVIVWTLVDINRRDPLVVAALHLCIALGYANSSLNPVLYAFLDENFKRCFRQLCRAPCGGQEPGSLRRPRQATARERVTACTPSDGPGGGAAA

T2 sequence (P41145 whole entry): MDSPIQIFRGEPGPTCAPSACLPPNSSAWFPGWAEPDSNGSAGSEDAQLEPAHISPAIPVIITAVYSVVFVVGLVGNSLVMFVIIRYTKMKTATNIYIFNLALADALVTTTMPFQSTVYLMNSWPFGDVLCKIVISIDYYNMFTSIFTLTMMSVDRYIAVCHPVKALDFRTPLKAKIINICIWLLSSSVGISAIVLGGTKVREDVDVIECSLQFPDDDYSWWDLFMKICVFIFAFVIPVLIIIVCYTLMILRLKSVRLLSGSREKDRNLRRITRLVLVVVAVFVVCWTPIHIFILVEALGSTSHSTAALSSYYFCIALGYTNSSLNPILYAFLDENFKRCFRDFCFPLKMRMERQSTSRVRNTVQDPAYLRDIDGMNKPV
T3 sequence (P33533 whole entry): as the sequence (P33533 whole entry) above
T1 sequence (P33535 whole entry): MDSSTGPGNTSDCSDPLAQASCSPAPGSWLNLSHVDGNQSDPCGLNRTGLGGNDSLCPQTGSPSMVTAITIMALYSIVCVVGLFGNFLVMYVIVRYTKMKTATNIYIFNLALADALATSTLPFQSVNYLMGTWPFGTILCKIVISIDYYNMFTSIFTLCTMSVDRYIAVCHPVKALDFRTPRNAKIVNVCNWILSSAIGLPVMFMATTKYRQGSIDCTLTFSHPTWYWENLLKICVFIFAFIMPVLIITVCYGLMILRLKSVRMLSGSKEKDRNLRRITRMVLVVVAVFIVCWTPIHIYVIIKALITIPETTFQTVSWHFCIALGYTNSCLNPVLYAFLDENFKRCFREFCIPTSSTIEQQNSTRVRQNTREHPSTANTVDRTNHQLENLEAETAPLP
Chain of Mu-type opioid receptor (Rattus norvegicus) (P33535 whole entry): as above

Compound | Ki (Mu-type opioid receptor [1]) | max activation [2] | Ki [3] | max activation [4] | EC50 ([5]; c6) | EC50 [6] | Ki [7] | EC50 (Mu-type opioid receptor [8]) | max activation [9] | EC50 ([5]; read-out: EC50)
Cc1cccc(C)c1C[C@H](N)C(=O)N[C@@H]1CCNc2ccc(Cc3ccccc3)cc21 | 0.018 µM | 86% | 0.13 µM | 38% | Not Active | 4.8 µM | 0.66 µM | 0.28 µM | – | –
N[C@@H](Cc1c(Cl)cc(O)cc1Cl)C(=O)N[C@@H]1CCNc2ccc(Cc3ccccc3)cc21 | 0.00047 µM | 83% | 0.035 µM | 32% | Not Active | 1.2 µM | 0.037 µM | 0.033 µM | inactive | –
Cc1cc(O)ccc1C[C@H](N)C(=O)N[C@@H]1CCNc2ccc(Cc3ccccc3)cc21 | 0.0017 µM | 69% | 0.096 µM | 41% | Not Active | 2.4 µM | 0.042 µM | 0.044 µM | – | –
N[C@@H](Cc1ccc2cccc(O)c2c1)C(=O)N[C@@H]1CCNc2ccc(Cc3ccccc3)cc21 | 0.44 µM | – | 2.5 µM | – | – | – | 1.6 µM | – | – | –
Cc1cc(C[C@H](N)C(=O)N[C@@H]2CCNc3ccc(Cc4ccccc4)cc32)c(C)cc1O | 0.0065 µM | 89% | 0.73 µM | 22% | – | 0.37 µM | 0.39 µM | 0.039 µM | 53% | 5.9 µM
